The subject of test [1] is normal rat alveolar macrophages. The experiment in a line: Phagocytosis of K. pneumoniae by normal rat alveolar macrophages (phagocytic index). Type of test: cell-based, Wistar rats. As for the experimental part: (§1) For assays of bacterial phagocytosis and killing, alveolar macrophages were purified from bronchoalveolar lavage cells by adherence for 1 hour in HBSS and studied in monolayer culture. Adherent cells were preincubated with 5% K. pneumoniae-specific immune serum (as a source of both complement and specific opsonizing antibody) for 5 minutes at 37° C. prior to assays. Phagocytosis was studied by incubating 10^5 alveolar macrophages with 10^6 K. pneumoniae in each well of an 8-well Labtek® plate (Nunc) for 1 hour at 37° C.; in some experiments, exogenous LTB4 (Cayman) was added concomitantly with bacteria. The supernatants were aspirated and the cells were washed 3 times with HBSS. The slides were then allowed to air dry, Diff-Quik® (Difco) staining was performed, and 200 cells per well were counted to determine number of intracellular K. pneumoniae and percent of alveolar macrophages containing bacteria. Phagocytic index was calculated as the mean percentage of alveolar macrophages containing bacteria multiplied by the mean number of bacteria per alveolar macrophage.
Alveolar macrophages from Wistar rats were adhered and then incubated for 1 hour with K. pneumoniae alone or in the presence of 1 nM of several 5-LO metabolites (LTB4, LTC4, and 5-HETE). Phagocytic index was subsequently determined as described above in the General Methods.
A related experiment was also performed to determine if the ability of exogenous LTB4 to enhance bacterial phagocytosis is mediated by its interaction with LTB4 receptors. This experiment was based on the fact that pretreatment with LTB4 desensitizes cells to subsequent LTB4 responsiveness; though an understanding of the mechanism of this effect is not required to practice the present invention, the desensitization is believed to occur by down-regulating receptor expression or coupling. For this experiment, cells were pretreated with LTB4 (1 nM) for 1 hour, washed, and incubated with bacteria plus LTB4.

The target of test [2] is T1, 5-LO (Mus musculus, UniProt P48999).
T1 construct: from tissue; host or cells: whole animal: wild type mice (129/SvEv, The Jackson Laboratory)
T1 sequence (P48999 1-674): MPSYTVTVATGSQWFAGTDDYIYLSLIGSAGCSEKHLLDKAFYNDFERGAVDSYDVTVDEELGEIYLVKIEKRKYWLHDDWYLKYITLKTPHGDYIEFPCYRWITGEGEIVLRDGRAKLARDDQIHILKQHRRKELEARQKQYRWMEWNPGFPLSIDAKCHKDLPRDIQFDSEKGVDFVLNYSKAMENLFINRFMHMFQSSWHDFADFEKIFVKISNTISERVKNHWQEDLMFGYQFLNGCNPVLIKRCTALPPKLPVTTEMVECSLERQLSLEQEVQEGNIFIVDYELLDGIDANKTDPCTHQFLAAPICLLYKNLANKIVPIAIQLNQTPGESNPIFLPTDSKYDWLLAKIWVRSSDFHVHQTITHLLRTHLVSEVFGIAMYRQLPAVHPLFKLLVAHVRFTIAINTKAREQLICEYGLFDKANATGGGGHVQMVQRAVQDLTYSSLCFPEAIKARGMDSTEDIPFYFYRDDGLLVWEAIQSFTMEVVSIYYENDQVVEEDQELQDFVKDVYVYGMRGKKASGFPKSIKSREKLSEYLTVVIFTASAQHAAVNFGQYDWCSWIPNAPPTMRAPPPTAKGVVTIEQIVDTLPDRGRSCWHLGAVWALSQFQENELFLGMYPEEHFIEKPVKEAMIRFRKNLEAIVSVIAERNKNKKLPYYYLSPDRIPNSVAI
Conditions: once-daily oral agent; cited from earlier work.

For test [3] the following is noted: mice, once-daily oral dose; cited from earlier work.
Test [4] has as its system alveolar macrophages from 5-LO knockout mice. The experiment in a line: Phagocytosis of K. pneumoniae by alveolar macrophages from 5-LO knockout mice (phagocytic index). The class given is cell-based, mouse. The conditions noted are these: 5-LO knockout alveolar macrophages. As for the experimental part:
as §1
Cultured alveolar macrophages from knockout mice were incubated in the presence of specific serum for 1 hour with K. pneumoniae alone or in the presence of varying doses of LTB4. Phagocytic index was calculated as described in the General Methods. FIG. 6 graphically depicts the effect of exogenous LTB4 (none, 0.1 nM, and 5 nM LTB4 added) on bacterial phagocytic activity in alveolar macrophages from 5-LO KO mice; each value represents the mean from triplicate cultures. […] Though not required in order to practice the present invention, it is believed that neutrophils manifest similar functional defects in phagocytosis and killing which could contribute to the sensitivity to bacterial pneumonia seen in knockout mice in vivo.

In test [5] the test system is neutrophils from 5-LO knockout mice. The test is described as follows: Phagocytosis of K. pneumoniae by glycogen-elicited peritoneal neutrophils from 5-LO knockout mice. The conditions noted are these: 1 nM LTB4, one hour. Type of test: cell-based, mouse. As to the method: as §1
To obtain peritoneal elicited neutrophils, mice are injected intraperitoneally with 5% glycogen in PBS and peritoneal lavage is performed 5 hours later. Approximately 3×10^6 cells are obtained from each animal, approximately 85-90% of which are neutrophils. These cells are likewise placed into culture for functional studies. […]

Test [6] concerns K. pneumoniae. The experiment in a line: Pulmonary bacterial clearance (lung homogenate CFU) after intratracheal K. pneumoniae challenge in 5-LO knockout mice. Type of test: in vivo, mouse. As for the experimental part: K. pneumoniae strain 43816, serotype 2 obtained from the ATCC (Assession No. 29939) was grown in tryptic soy broth (Difco) for 18 hours at 37° C. The preparation and intratracheal administration of K. pneumoniae were carried out as described by M. Schneemann et al. [J. Infect. Dis. 167:1358-1363 (1993)]. Bacterial concentration was determined by measuring absorbance at 600 nm and referencing to a standard curve of absorbances vs. known standard CFUs. Bacteria were then pelleted by centrifugation for 30 min at 10,000 rpm, washed ×2 in saline, and resuspended at the desired concentration in saline.
After appropriate dilution of bacteria in endotoxin-free saline, animals were anesthetized with sodium pentobarbital (approximately 0.2 mL diluted 1:7 in saline intraperitoneally) and the trachea was exposed via a small midline incision. […]
Plasma and lung CFU were determined as described by M. Schneemann et al. [J. Infect. […]
LTB4 was administered together with the intratracheal inoculum of K. pneumoniae (50 CFU). […] Second, the present inventors previously found (see FIG. 5) that approximately 7 ng of total LTB4 could be measured in the homogenate of a pair of lungs from Klebsiella-challenged wild type mice. […] Following 24 hours of bacterial inoculation, lungs were harvested and lung homogenate CFUs were determined.

For test [7] the following is noted: in vivo bronchoscopic instillation into the human lung; cited from earlier work.
Test [8] has as its system peritoneal macrophages. Conditions: cited from earlier work.
Test [9] relates to Schistosoma mansoni. Conditions: neutrophils; cited from earlier work.
In test [10] the test system is S. typhimurium. Conditions: intraperitoneal injection; cited from earlier work.
The conditions of test [11]: 6 ng intratracheally per animal, 6 hours after administration, mice; cited from earlier work.
The conditions of test [12]: administered orally to rats; cited from earlier work.
The mark [13] stands for this setting: normal rat alveolar macrophages, 1 nM, 1 hour with K. pneumoniae.

The text below walks through data of patent publication US7696148B1, “Administration of products of the 5-lipoxygenase metabolic pathway to enhance antimicrobial defense” (Board of Trustees of Michigan State University, priority 1996, dated 2010).

The structures appear in SMILES notation. Like-named read-outs stand apart in the source and are kept apart here.

As to `CCCCC/C=C\C/C=C\C/C=C\C=C\[C@@H](O)CCCC(=O)O` [5-HETE], the “effect on phagocytic index” value in [1] (setting [13]) is “similar, though less pronounced, effect”.

As for `C[C@H](C#Cc1ccc(Oc2ccc(F)cc2)o1)N(O)C(N)=O` [A-79175], in test [2], the “efficacy in mice” value is reported as “demonstrated efficacy in mice”.

Consider `O=C(O)C1(c2ccc3c(c2)OC[C@H](Cc2ccc(-c4ccccc4)cc2)[C@H]3O)CCCC1` [CP-105,696], for which the “collagen-induced arthritis” value in test [3] is on record as “inhibited collagen-induced arthritis”.

On to `CCCCC/C=C\C[C@@H](O)/C=C/C=C/C=C\[C@@H](O)CCCC(=O)O` [LTB4, leukotriene B4], for which, in test [4] (5 nM LTB4, 1 hour with K. pneumoniae, specific serum), the “phagocytic index relative to baseline level” value is “approximately three”. For the same compound, the “increase of phagocytic index” value in [4] (exogenous LTB4) is “approximately 300%”. The “effect on phagocytic index” value in [4] (none, 0.1 nM and 5 nM LTB4) was “dose-dependently enhanced the phagocytic index”. This compound returned a phagocytic index in test [5] of 27±8. Also, the “effect of LTB4 pretreatment on LTB4-augmented phagocytosis” value in test [1] (cells pretreated with LTB4 1 nM for 1 hour, washed, then bacteria plus LTB4 1 nM) is “almost completely abrogated”. Also, the “increase in phagocytic index” value in [1] (setting [13]) is reported as “approximately 6 fold”. Also, in test [6] (intrapulmonary administration), the “effect on in vivo bacterial clearance” value is “partially overcame the in vivo impairment in bacterial clearance”. Besides, the “reduction of lung CFU” value in [6] (single 6 ng intratracheal dose with 50 CFU inoculum, 24 hours) is on record as “approximately 10 fold”. The “neutrophil influx” value in test [7] is given as “resulted in neutrophil influx”; in test [11] it was “brisk neutrophil influx”. For the same compound, the “in vitro phagocytosis and killing of P. aeruginosa and Salmonella typhimurium” value in test [8] is “enhanced the in vitro phagocytosis and killing”. Also, the “in vitro killing of Schistosoma mansoni” value in test [9] is recorded as “enhanced”. The “in vivo clearance of S. typhimurium” value in test [10] is “enhanced the in vivo clearance”.

For the compound `CCCCC/C=C\C\C=C/C=C/C=C/[C@@H](SC[C@H](NC(=O)CC[C@H](N)C(=O)O)C(=O)NCC(=O)O)[C@@H](O)CCCC(=O)O` [LTC4, leukotriene C4], in test [1] (setting [13]), the “effect on phagocytic index” value is on record as “augmented phagocytosis to a degree similar to LTB4”.

As for `CN(C)C(=O)CCSC(SCCC(=O)O)c1cccc(/C=C/c2ccc3ccc(Cl)cc3n2)c1` (stereo not drawn) [MK-571], the “antigen-induced bronchoconstriction” value in test [12] was “effectively inhibited antigen-induced bronchoconstriction”.
